In patent US7211246B2, “Compositions comprising oestrone-3-0-sulphamate and trail (TNF-related apoptosis inducing ligand)” (Sterix Limited, priority 2001, dated 2007):

T1: E1-STS (Homo sapiens, UniProt P08842)
T1 sequence (P08842 22-583): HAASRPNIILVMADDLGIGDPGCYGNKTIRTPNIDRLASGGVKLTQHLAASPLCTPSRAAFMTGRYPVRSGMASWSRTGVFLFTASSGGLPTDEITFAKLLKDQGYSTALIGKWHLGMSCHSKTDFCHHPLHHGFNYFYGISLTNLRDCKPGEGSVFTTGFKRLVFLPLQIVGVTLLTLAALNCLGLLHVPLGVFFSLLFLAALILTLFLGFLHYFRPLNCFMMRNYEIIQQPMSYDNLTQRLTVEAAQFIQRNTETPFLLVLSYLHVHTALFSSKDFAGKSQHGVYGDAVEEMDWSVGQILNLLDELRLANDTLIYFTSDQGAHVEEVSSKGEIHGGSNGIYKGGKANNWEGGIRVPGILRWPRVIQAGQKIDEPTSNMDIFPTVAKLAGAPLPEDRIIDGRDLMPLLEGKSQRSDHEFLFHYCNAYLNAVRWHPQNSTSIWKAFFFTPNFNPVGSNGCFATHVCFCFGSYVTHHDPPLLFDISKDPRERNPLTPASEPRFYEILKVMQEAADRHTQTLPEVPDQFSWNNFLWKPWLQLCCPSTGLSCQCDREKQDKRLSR


How the values were obtained:
[1] = biological target: T1, E1-STS; conditions: cited from earlier work
[2] = biological target: T1, E1-STS; set-up: E1-STS activity in intact MCF-7 cells; endogenous in cells; host or cells: MCF-7 cells; conditions: intact MCF-7 cells, 0.1 μM; cited from earlier work
[3] = test system: CAL51 cells; assay: Cell Titre 96 Aqueous One Solution cell proliferation assay, CAL51 cells; assay type: cell-based; conditions: 2 days; for cell death compared to treatment with compound alone: in combination with TRAIL (50 or 250 ng/ml)
Experimental: (§1) FIGS. 1A to 1C show effects of 2-MeOEMATE and 2-EtEMATE on TRAIL induced apoptosis in CAL51 and MCF-7 cells. Cell proliferation assays in which CAL51 cells or MCF7 cells were plated at a density of 5,000 in 96 well plates and treated with 0, 0.05, 0.5 or 5 μM MeoEMATE or 2-EtEMATE in the presence of 0, 50 or 250 ng/ml recombinant human TRAIL. Results are the mean of triplicates+/−S.D. and are expressed as a percentage of results for untreated cells.
(§2) Cell proliferation was measured using the Cell Titre 96 Aqueous One Solution Cell proliferation assay (Promega). This is a colorimetric method which determines cell viability and can therefore be used to measure the ability of drugs to cause cell death. The assay is performed by adding the cell proliferation reagent directly to the cells. Metabolically active cells convert the reagent to a coloured formazan product and the absorbance at 490 nm is measured 1–4 hrs after incubation at 37° C.
(§3) For the TRAIL co-operation experiments, CAL-51 of MCF-7 cells were plated at 5,000 cells per well in 96 well plates. CAL-51 cells were treated with 0, 0.05, 0.5 or 5 μM 2-MeOEMATE or 2-EtEMATE in the presence of 0, 50 or 250 ng/ml recombinant human TRAIL. MCF7 cells were treated with 5 μM 2-MeOEMATE or 2-EtEMATE in the presence or absence of 250 ng/ml recombinant human TRAIL. Cell proliferation was measured 2 days (CAL-51) or 1 day (MCF-7) after addition of drugs. Tests were performed in triplicate and data are means of triplicate results+/−S.D. and are expressed as a percentage of results obtained for untreated cells. Experiments on CAL-51 cells were performed 4 times for each compound and once for each compound on MCF-7 cells.

[4] = test system: MCF-7 cells; assay: Cell Titre 96 Aqueous One Solution cell proliferation assay, MCF-7 cells; assay type: cell-based; conditions: 24 hrs
Experimental: as §1, §2, §3

[5] = test system: DR5 mRNA; assay: RNAse protection assay, DR5 mRNA levels in Cal51 cells; assay type: cell-based, Human; conditions: 0.5 μM, between 24 and 48 hours
Experimental: (§4) RNAse protection assay showing DR5, DR4 and GAPDH mRNA levels at 0, 8, 16, 24 and 48 hours following treatment with 0.5 μM 2-MeOEMATE and 2-EtEMATE in Cal51 cells.
(§5) We investigated if the co-operation observed between TRAIL and 2-MeOEMATE or 2-EtEMATE to induce cell death in CAL51 cells was due to upregulation of DR4 and/or DR5 receptors by 2-MeOEMATE and 2-EtEMATE. We used RNAse protection assays to examine the levels of mRNAs for DR4 and DR5 following treatment of CAL51 cells with 2-MeOEMATE and 2-EtEMATE over 48 hours.
(§6) This experiment was performed once. A radiolabeled RNA multi-probe was synthesised (Pharmingen RiboQuant Human Apoptosis Multiprobe template set hAPO-3c) using [α^32P] UTP and […] RNA polymerase. This multi-probe template set allows simultaneous generation of several probes for detection and measurement of apoptosis related genes. […]
(§7) Total RNA was prepared using Trizol reagent (Gibco-BRL) from CAL-51 cells treated with 2-MeOEMATE or 2-EtEMATE for 0, 8, 16, 24 and 48 hrs. […] The gel was dried and analysed by phosphoimaging on the Personal Molecular Imager Fx (Biorad). Protected fragment bands corresponding to DR5 and GAPDH were quantified and expressed as a ratio of DR5/GAPDH to normalise results.

[6] = test system: DR4 mRNA; assay: RNAse protection assay, DR4 mRNA levels in Cal51 cells; assay type: cell-based, Human; conditions: 0.5 μM, over 48 hours
Experimental: as §4, §5, §6, §7

[7] = test system: caspase 3; assay: Western blot of caspase 3 activation in Cal51 cells; assay type: cell-based; conditions: Cal51 cells, 48 hours; for activation of caspase 3 compared to compound alone: 5 μM compound in combination with 250 ng/ml TRAIL; for activation of caspase 3 (reduction of unprocessed caspase 3): treatment alone, 5 μM compound or 250 ng/ml TRAIL
Experimental: FIG. 3. Effect of 2-MeOE2bisMATE on caspase 8 and caspase 3 activation and PARP cleavage in Cal51 cells. Western blots showing caspase 8 and caspase 3 unprocessed and active fragments and PARP uncleaved and cleaved products following treatment of Cal51 cells with solvent, 0.05, 0.5 or 5 μM 2-MeOE2bisMATE for 48 hours.
FIG. 5. Effect of 2-MeOE2bisMATE on the timing of caspase 3 and caspase 8 activation and PARP cleavage in Cal51 cells. Western blots showing caspase 3, caspase 8 and PARP unprocessed and cleaved products at 0, 8, 16, 24 and 48 hrs following treatment of Cal51 cells with 5 μM 2-MeOE2bisMATE for 48 hrs or untreated for 48 hrs (48NT).
FIG. 7. Effect of combined treatment of 2-EtEMATE or 2-MeOEMATE and TRAIL on caspase 3 activation in Cal51 cells. Western blots showing caspase 3 activation following treatment of Cal51 cells for 48 hours with solvent, 250 ng/ml TRAIL and 5 μM 2-EtEMATE or 2-MeOEMATE in the presence or absence of 250 ng/ml TRAIL. PCNA levels represent corresponding loading controls. 1, control; 2, THF solvent; 3, TRAIL; 4, 2-EtEMATE; 5,2-EtEMATE+TRAIL; 6, control; 7, THF solvent; 8, TRAIL; 9, 2-MeOEMATE; 10, 2-MeOEMATE+TRAIL
To determine whether caspases might play a role in cell death induced by 2-MeOE2bisMATE and other sulfamoylated oestrogen derivatives, we examined the expression of caspase 3, caspase 8 and PARP by immunoblotting (FIG. 3). […] Therefore, cell death induced by the 2-MeOE2bisMATE in Cal51 cells is associated with caspase activation.
There are two major pathways of apoptosis; cell surface death receptors activate caspases directly via activation of caspase 8 whereas other apoptotic stimuli operate via triggering the release of cytochrome c from mitochondria which subsequently activates caspases. Both pathways ultimately result in activation of caspase 3 and PARP cleavage. Since activation of caspase 8 is an indicator for the direct involvement of death receptors, it is important to determine whether activation of caspase 8 by 2-MeOE2bisMATE precedes or follows caspase 3 activation. We therefore performed time course experiments in Cal51 cells treated with 2-MeOE2bisMATE to order the activation events. Caspase 3 activation was first detected at 16 hours and as expected was followed by PARP cleavage at 24 hours (FIG. 5). Caspase 8 activation was a relatively late event, first detected at 48 hours. Therefore activation of caspase 3 induced by 2-MeOE2bisMATE precedes activation of caspase 8.
To further explore the mechanism for co-operation between sulfamoylated oestrones and TRAIL, we analysed activation of caspase 3 (FIG. 7). […] Therefore, sulfamoylated oestrones and TRAIL cooperate to activate caspase 3.

[8] = test system: DR5 protein; assay: Western blot of DR5 protein levels in Cal51 cells; assay type: cell-based; conditions: 48 hours, 0.05, 0.5 and 5 μM
Experimental: FIG. 6. […] Western blot showing DR5 protein levels following treatment of Cal51 cells for 48 hours with 0, 0.05, 0.5 and 5 μM of 2-MeOEMATE or 2-EtEMATE. PCNA levels represent corresponding loading controls.
Protein lysates were prepared from CAL51 cells treated with various compounds and analysed for expression of DR5 by immunoblotting (FIG. 6).

[9] = 5 μM compound in combination with 250 ng/ml TRAIL
[10] = treatment alone, 5 μM compound or 250 ng/ml TRAIL

Molecule | inhibition of the E1-STS enzyme [1] | inhibition of E1-STS activity [2] | cell death compared to treatment with compound alone [3] | cell death [4, 9] [%] | cell death [4, 10] [%] | DR5 mRNA levels (DR5/GAPDH) compared to untreated control [5] | DR4 mRNA levels [6] | activation of caspase 3 compared to compound alone [7] | activation of caspase 3 (reduction of unprocessed caspase 3) [7] | DR5 protein levels by western blot [8] | TRAIL induced cell death ([3]; TRAIL alone (50 or 250 ng/ml))
CC12CCC3c4ccc(OS(N)(=O)=O)cc4CCC3C1CCC2=O (stereo not drawn) [EMATE, oestrone-3-sulphamate] | time- and concentration-dependent manner | more than 99% |  |  |  |  |  |  |  |  | 
COc1cc2c(cc1OS(N)(=O)=O)CCC1C2CCC2(C)C(=O)CCC12 (stereo not drawn) [2-MeOEMATE, 2-methoxyoestrone-3-O-sulphamate] |  |  | enhanced the amount of cell death | 35 | 13 | significantly increased | did not change significantly | further enhanced | induced activation of caspase 3 | did not detect a significant increase | 
CCc1cc2c(cc1OS(N)(=O)=O)CCC1C2CCC2(C)C(=O)CCC12 (stereo not drawn) [2-EtEMATE, 2-ethyloestrone-3-O-sulphamate] |  |  | enhanced the amount of cell death | 36 | 16 | significantly increased | did not change significantly | further enhanced | induced activation of caspase 3 | did not detect a significant increase | 
TRAIL: Tumour necrosis factor (TNF) related apoptosis inducing ligand; recombinant human TRAIL used in the tests (protein, UniProt P50591 1-281, looked up) Tumor necrosis factor ligand …: MAMMEVQGGPSLGQTCVLIVIFTVLLQSLCVAVTYVYFTNELKQMQDKYSKSGIACFLKEDDSYWDPNDEESMNSPCWQVKWQLRQLVRKMILRTSEETISTVQEKQQNISPLVRERGPQRVAAHITGTRGRSNTLSSPNSKNEKALGRKINSWESSRSGHSFLSNLHLRNGELVIHEKGFYYIYSQTYFRFQEEIKENTKNDKQMVQYIYKYTSYPDPILLMKSARNSCWSKDAEYGLYSIYQGGIFELKENDRIFVSVTNEHLIDMDHEASFFGAFLVG |  |  |  |  | 12 |  |  |  | no detectable caspase 3 activation |  | resistant to TRAIL induced cell death
